In patent US20060009478A1, “Methods for the treatment of back pain” (priority 2003, published 2006):

Tests used:
Assay type in all cases: in vivo, human
[1] = system: patients with moderate to severe chronic pain due to osteoarthritis of the hip or knee; assay: Quality of analgesia, 3-week osteoarthritis study
Description: Quality of Analgesia was assessed weekly at clinic visits. The patient was prompted with the question, “How would you rate the quality of your pain relief at this time?”, and responses were selected from poor, fair, good, very good, and excellent.
The global assessment, quality of analgesia, and pain control, recorded at the end of each week, were summarized in terms of category proportions.
For secondary analysis of data, pain intensity changes, SF-12, and WOMAC were analyzed with the ANOVA methods as described above. Within treatment arms, weeks were compared in pairwise fashion using paired-sample methods. The global assessments, quality of analgesia ratings, and pain control was analyzed at each week, globally and in pairwise fashion, using the Cocharan-Mantel-Haenszel row mean scores (CMH-RMS) test, using equally spaced scores. An “observed data” analysis, without any data imputation, was conducted on pain intensity changes, global assessments, quality of analgesia ratings, pain control, SF-12, and WOMAC using the same analysis methods described previously.

[2] = system: patients with moderate to severe chronic low back pain; assay: Opioid Associated Adverse Event Score (OAAES), low back pain study; settings: through the treatment period; ITT population
Text: The OAAES is a derived measure using the maximum severity for each of six opioid-associated adverse events (constipation, nausea, vomiting, dizziness, somnolence, and pruritis). For each patient, a maximum severity score (mild=1, moderate=2, and severe=3) was summed for each of the six treatment emergent opioid-associated adverse events that were present. […]

[3] = system: patients with moderate to severe chronic low back pain; assay: Global assessment of study medication, low back pain study; settings: LOCF, ITT
Description: Global assessment of study medication was also assessed at clinic visits during the titration and fixed-dose periods. The patient was prompted with the question, “How would you rate the study medication you received during the past week/past two weeks? (Please consider the quality of your pain relief, your side effects, your activity level, your mood and sense of well-being, etc. in this evaluation.)” Responses were selected from poor, fair, good, very good, and excellent.
Global assessment and quality of analgesia ratings were summarized descriptively by treatment group for both the titration and fixed-dose periods. Treatments were compared at each visit in the fixed-dose period, globally and in pairwise fashion, using the Cochran-Mantel-Haenszel row mean scores (CMH-RMS) test, using equally spaced scores.

[4] = ITT (N = 102 per active group), LOCF

## COc1ccc2c3c1O[C@H]1C(=O)CC[C@@]4(O)[C@@H](C2)N(C)CC[C@]314 [OXY QID, oxycodone]
[1]; [4]
  Quality of analgesia Week 1: EXCELLENT (4), number (%) of patients: 3 (2.9%)
  Quality of analgesia Week 1: FAIR (1), number (%) of patients: 31 (30.4%)
  Quality of analgesia Week 1: GOOD (2), number (%) of patients: 18 (37.3%)
  Quality of analgesia Week 1: POOR (0), number (%) of patients: 18 (17.6%)
  Quality of analgesia Week 1: VERY GOOD (3), number (%) of patients: 8 (7.8%)
  Quality of analgesia Week 2: EXCELLENT (4), number (%) of patients: 4 (3.9%)
  Quality of analgesia Week 2: FAIR (1), number (%) of patients: 29 (28.4%)
  Quality of analgesia Week 2: GOOD (2), number (%) of patients: 30 (29.4%)
  Quality of analgesia Week 2: POOR (0), number (%) of patients: 19 (18.6%)
  Quality of analgesia Week 2: VERY GOOD (3), number (%) of patients: 16 (15.7%)
  Quality of analgesia Week 3: EXCELLENT (4), number (%) of patients: 5 (4.9%)
  Quality of analgesia Week 3: FAIR (1), number (%) of patients: 23 (22.5%)
  Quality of analgesia Week 3: GOOD (2), number (%) of patients: 32 (31.4%)
  Quality of analgesia Week 3: POOR (0), number (%) of patients: 23 (22.5%)
  Quality of analgesia Week 3: VERY GOOD (3), number (%) of patients: 15 (14.7%)
[1]; Week 3
  Patients reporting a quality of analgesia assessment of very good or excellent at Week 3: 19.6%
[2]
  Opioid Associated Adverse Event Score (OAAES), maximum: 16.0
  Opioid Associated Adverse Event Score (OAAES), mean (SD): 5.6 (3.95)
  Opioid Associated Adverse Event Score (OAAES), median: 5.0
  Opioid Associated Adverse Event Score (OAAES), minimum: 0.0
[3]; fixed dose period week 1
  Global assessment EXCELLENT (4), number of patients: 14
  Global assessment EXCELLENT (4), percent of patients: 6.8%
  Global assessment FAIR (1), number of patients: 23
  Global assessment FAIR (1), percent of patients: 11.2%
  Global assessment GOOD (2), number of patients: 72
  Global assessment POOR (0), number of patients: 33
  Global assessment POOR (0), percent of patients: 16.0%
  Global assessment VERY GOOD (3), number of patients: 63
  Global assessment VERY GOOD (3), percent of patients: 30.6%
[3]; fixed dose period week 2
  Global assessment EXCELLENT (4), number of patients: 21
  Global assessment EXCELLENT (4), percent of patients: 10.2%
  Global assessment FAIR (1), number of patients: 22
  Global assessment FAIR (1), percent of patients: 10.7%
  Global assessment GOOD (2), number of patients: 79
  Global assessment POOR (0), number of patients: 33
  Global assessment POOR (0), percent of patients: 16.0%
  Global assessment VERY GOOD (3), number of patients: 50
[3]; fixed dose period week 4
  Global assessment EXCELLENT (4), number of patients: 20
  Global assessment EXCELLENT (4), percent of patients: 9.7%
  Global assessment FAIR (1), number of patients: 26
  Global assessment FAIR (1), percent of patients: 12.6%
  Global assessment GOOD (2), number of patients: 69
  Global assessment POOR (0), number of patients: 37
  Global assessment POOR (0), percent of patients: 18.0%
  Global assessment VERY GOOD (3), number of patients: 53
[3]; fixed dose period week 6
  Global assessment EXCELLENT (4), number of patients: 23
  Global assessment EXCELLENT (4), percent of patients: 11.2%
  Global assessment FAIR (1), number of patients: 28
  Global assessment FAIR (1), percent of patients: 13.6%
  Global assessment GOOD (2), number of patients: 73
  Global assessment POOR (0), number of patients: 38
  Global assessment POOR (0), percent of patients: 18.4%
  Global assessment VERY GOOD (3), number of patients: 43
  Global assessment VERY GOOD (3), percent of patients: 20.9%
[3]; fixed dose period week 8
  Global assessment EXCELLENT (4), number of patients: 20
  Global assessment EXCELLENT (4), percent of patients: 9.7%
  Global assessment FAIR (1), number of patients: 34
  Global assessment FAIR (1), percent of patients: 16.5%
  Global assessment GOOD (2), number of patients: 74
  Global assessment POOR (0), number of patients: 36
  Global assessment POOR (0), percent of patients: 17.5%
  Global assessment VERY GOOD (3), number of patients: 41
  Global assessment VERY GOOD (3), percent of patients: 19.9%
[3]; fixed dose period week 10
  Global assessment EXCELLENT (4), number of patients: 23
  Global assessment EXCELLENT (4), percent of patients: 11.2%
  Global assessment FAIR (1), number of patients: 34
  Global assessment FAIR (1), percent of patients: 16.5%
  Global assessment GOOD (2), number of patients: 65
  Global assessment GOOD (2), percent of patients: 31.6%
  Global assessment POOR (0), number of patients: 38
  Global assessment POOR (0), percent of patients: 18.4%
  Global assessment VERY GOOD (3), number of patients: 45
  Global assessment VERY GOOD (3), percent of patients: 21.8%
[3]; fixed dose period week 12
  Global assessment EXCELLENT (4), number of patients: 22
  Global assessment EXCELLENT (4), percent of patients: 10.7%
  Global assessment FAIR (1), number of patients: 33
  Global assessment FAIR (1), percent of patients: 16.0%
  Global assessment GOOD (2), number of patients: 75
  Global assessment POOR (0), number of patients: 38
  Global assessment POOR (0), percent of patients: 18.4%
  Global assessment VERY GOOD (3), number of patients: 37
  Global assessment VERY GOOD (3), percent of patients: 18.0%
